The structures appear in SMILES notation.

One test has as its target T1, human FAAH (Homo sapiens, UniProt O00519).
T1 construct: host or cells: COS-7 cells, transient transfection; 13,000 g membrane fraction solubilised in 1% Triton X-100
T1 sequence (O00519 1-579): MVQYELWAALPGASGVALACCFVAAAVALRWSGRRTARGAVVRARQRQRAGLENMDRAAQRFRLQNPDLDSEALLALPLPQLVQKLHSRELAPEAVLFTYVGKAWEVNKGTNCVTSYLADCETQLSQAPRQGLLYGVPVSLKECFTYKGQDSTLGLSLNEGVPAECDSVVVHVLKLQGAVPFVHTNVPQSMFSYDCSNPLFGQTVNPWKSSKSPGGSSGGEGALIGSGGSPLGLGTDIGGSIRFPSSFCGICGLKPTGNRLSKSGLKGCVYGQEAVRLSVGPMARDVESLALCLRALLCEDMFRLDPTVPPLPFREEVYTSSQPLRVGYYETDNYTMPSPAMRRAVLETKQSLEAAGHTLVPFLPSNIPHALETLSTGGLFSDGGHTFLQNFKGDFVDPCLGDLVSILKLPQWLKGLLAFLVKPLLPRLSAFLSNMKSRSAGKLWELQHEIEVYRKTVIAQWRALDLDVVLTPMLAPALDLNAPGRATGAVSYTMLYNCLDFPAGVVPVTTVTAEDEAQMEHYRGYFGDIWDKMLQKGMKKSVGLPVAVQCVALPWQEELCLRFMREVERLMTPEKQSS
Put plainly: Human FAAH biochemical inhibition assay (AMC arachidonoyl amide fluorescence).
Settings: not given
On the procedure: The resulting solution is added into one dish of 30-40% confluent COS-7 cells in a drop-wise manner. The COS-7 cell dish is subsequently incubated for 48 hours. The cells are then harvested.
Harvest procedure: Media was aspirated from the dishes and the cells rinsed with 10 mL PBS. The PBS was removed and 3 mLs of PBS added to the dish. The dish was scraped to resuspend the cells, and the subsequent cell suspension collected into a 15 ml conical tube. The cells were pelleted by centrifugation at 1200 rpm for 5 minutes in a bench top centrifuge. PBS was removed and the cell pellet snap frozen in liquid nitrogen, store at −80 C.
The pellets were dounce homogenized and then sonicated to produce cell extract. The cell extract was subsequently centrifuged at 1000 g to remove cellular debris. The pellet was discarded and the supernatant centrifuged at 13,000 g for 20 minutes. The pellet contained membrane bound FAAH. The supernatant was discarded and the pellet resolubilized.
(2) Re-solubilization: The fraction of interest, (13,000 g, membrane fraction) was re-suspended in re-suspension buffer (20 mM Hepes pH 7.8, 10% v/v Glycerol, 1 mM EDTA, 1% Triton X-100) (2.3 mL re-suspension and the sample incubated on ice for 1 hour and then centrifuged to at 13,000 g remove any particulate matter. The supernatant containing solubilized human FAAH was aliquoted and snap frozen in liquid nitrogen and stored at −80° C. until use.
FAAH reaction buffer: 50 mM Hepes (pH 7.5), 1 mM EDTA, 0.2% Triton X-100.
Human FAAH assay; Experimental Protocol: A 0.1 mg/mL Human FAAH solution is made up in FAAH reaction buffer, and 24 ul pipetted into a 384 well plate. To this is added 1 uL of a 3 fold serially diluted inhibitor from a DMSO stock solution. The FAAH solution and inhibitor are incubated for 30 minutes at room temperature. The FAAH reaction is initiated by the addition of 25 uL of 40 uM AMC Arachidonoyl Amide in FAAH reaction buffer, yielding a final reaction human FAAH preparation concentration of 0.05 mg/ml and AMC-Arachidonoyl substrate concentration of 20 uM, reaction volume 50 uL. The reaction is allowed to proceed for 4 hours at room temperature. […] The microtiter plate in read in the envision plate reader.
As to `OB(O)c1ccc(Cl)cc1` [Compound I-82], the Ki (commonly the dissociation constant of the complex between target and ligand, obtained from inhibition or displacement) was in the range of 0.01 to 1 µM.

The same test, now with this note: Table 1, human FAAH (no asterisk); read-out: Activity (Ki).
As to `OB(O)c1cc(I)ccc1F` [Compound I-1], the Ki was in the range of 0.01 to 1 µM.
On the same count and under the same terms, to `OB(O)c1cccc(I)c1` [Compound I-2] belongs 0.01 to 0.1 µM.
The same measure, in the same setting: to `CC1(C)OB(c2cccc3cc[nH]c23)OC1(C)C` [Compound I-3] belongs over 1 µM; to `OB(O)c1cccc2c1oc1ccccc12` [Compound I-4], 0.01 to 1 µM.
On to `COc1cccc(COc2c(Br)cccc2B(O)O)c1` [Compound I-5], for which the Ki is over 1 µM.
On the same count and under the same terms, as for `CCOc1ccc(Br)cc1B(O)O` [Compound I-6], the figure is over 1 µM; as for `CC(C)Oc1c(Br)cc(F)cc1B(O)O` [Compound I-7], over 1 µM.
With `CCCOc1c(Br)cc(F)cc1B(O)O` [Compound I-8], the Ki is over 1 µM.
The same measure, in the same setting: to `CCOc1c(Br)cc(F)cc1B(O)O` [Compound I-9] belongs 0.01 to 1 µM.
Same read-out and setting: to `COc1c(Br)cc(F)cc1B(O)O` [Compound I-10] belongs 0.01 to 0.1 µM.
The same measure, in the same setting: as for `OB(O)C1=CCCCCC1` [Compound I-11], the figure is over 1 µM.
For `COc1ccc(Br)cc1B(O)O` [Compound I-12], the Ki was over 1 µM.
As to `OB(O)c1cc(F)cc(C(F)(F)F)c1` [Compound I-13], the Ki lay within 0.01 to 0.1 µM.
Same read-out and setting: as for `Cc1cc(F)cc(B(O)O)c1` [Compound I-14], the figure is 0.01 to 1 µM; as for `COc1cc(F)cc(B(O)O)c1` [Compound I-15], 0.01 to 1 µM.
For `CCOc1cc(F)cc(B(O)O)c1` [Compound I-16], the Ki lay in the range of 0.01 to 1 µM.
The same measure, in the same setting: as for `COc1cc(Br)cc(B(O)O)c1` [Compound I-17], the figure is over 1 µM.
The same measure, in the same setting: as for `OB(O)c1cc(F)cc(Cl)c1` [Compound I-18], the figure is 0.01 to 0.1 µM.
As for `CCOc1cc(B(O)O)cc(C(F)(F)F)c1` [Compound I-19], the Ki is over 1 µM.
The same measure, in the same setting: to `Cc1cc(Cl)cc(B(O)O)c1` [Compound I-20] belongs 0.01 to 1 µM; to `COc1cc(B(O)O)cc(C(F)(F)F)c1` [Compound I-21], over 1 µM.
Same read-out and setting: to `OB(O)c1cc(Cl)cc(Cl)c1` [Compound I-22] belongs 0.01 to 1 µM.
The same measure, in the same setting: as for `OB(O)c1cc(Br)cc(Br)c1` [Compound I-23], the figure is 0.01 to 1 µM; as for `OB(O)c1cc(F)cc(F)c1` [Compound I-24], 0.01 to 1 µM.
Turning to `Cc1cc(Br)cc(B(O)O)c1` [Compound I-25], the Ki was 0.01 to 1 µM.
Consider `OB(O)c1cc(F)cc(Br)c1` [Compound I-26], for which the Ki was in the range of 0.01 to 0.1 µM.
In the case of `OB(O)c1cc(OC(F)(F)F)ccc1F` [Compound I-27], the Ki lay within 0.01 to 0.1 µM.
Consider `OB(O)c1ccc(F)c(OCC(F)(F)F)c1` [Compound I-28], for which the Ki was in the range of 0.01 to 1 µM.
Still for that read-out and setting: to `OB(O)c1cccc(Br)c1` [Compound I-29] belongs 0.01 to 0.1 µM; to `CCC[C@H]1CC[C@H](c2ccc(B(O)O)cc2)CC1` [Compound I-30], under 0.01 µM; to `OB(O)c1ccc(-c2cccs2)cc1` [Compound I-31], 0.01 to 0.1 µM.
Regarding `COc1ccc(B(O)O)cc1Cl` [Compound I-32], the Ki lay in the range of 0.01 to 1 µM.
On the same count and under the same terms, to `Cc1ccc(B(O)O)cc1Cl` [Compound I-33] belongs 0.01 to 1 µM; to `OB(O)c1ccc(Br)c(F)c1F` [Compound I-34], 0.01 to 0.1 µM.
The same measure, in the same setting: to `CC(C)Oc1ccc(B(O)O)cc1Cl` [Compound I-35] belongs 0.01 to 0.1 µM; to `CCCCOc1ccc(B(O)O)cc1F` [Compound I-36], under 0.01 µM; to `OB(O)c1ccc(Cl)s1` [Compound I-37], 0.01 to 1 µM.
For the molecule `CCCCOc1ccc(B(O)O)cc1Cl` [Compound I-38], the Ki was under 0.01 µM.
On to `OB(O)c1ccccc1Cl` [Compound I-39], for which the Ki lay in the range of 0.01 to 1 µM.
Still for that read-out and setting: to `OB(O)c1cccs1` [Compound I-40] belongs over 1 µM.
Same read-out and setting: as for `OB(O)c1cccc2cnccc12` [Compound I-41], the figure is over 1 µM.
Regarding `CC(=O)c1cccc(B(O)O)c1` [Compound I-42], the Ki fell in the range of 0.01 to 1 µM.
In the case of `OB(O)c1ccc(C2CCCC2)cc1` [Compound I-43], the Ki is under 0.01 µM.
As for `OB(O)c1c(F)c(F)c(Br)c(F)c1F` [Compound I-44], the Ki is over 1 µM.
Turning to `OB(O)c1cccc(OC(F)(F)F)c1` [Compound I-45], the Ki fell in the range of 0.01 to 1 µM.
Same read-out and setting: to `N#Cc1ccc(B(O)O)cc1` [Compound I-46] belongs 0.01 to 1 µM.
In the case of `CS(=O)(=O)c1cccc(B(O)O)c1` [Compound I-47], the Ki was over 1 µM.
For `OB(O)c1ccccc1OC(F)(F)F` [Compound I-48], the Ki fell in the range of 0.01 to 1 µM.
The same measure, in the same setting: as for `CCCCCCCc1ccc(B(O)O)cc1` [Compound I-49], the figure is under 0.01 µM.
As for `OB(O)c1cccc(C(F)(F)F)c1` [Compound I-50], the Ki was 0.01 to 0.1 µM.
On the same count and under the same terms, as for `OB(O)c1ccsc1Cl` [Compound I-51], the figure is 0.01 to 1 µM.
Regarding `CCOc1ccc2cc(B(O)O)ccc2c1` [Compound I-52], the Ki was under 0.01 µM.
`CCCCOc1c(F)c(F)c(B(O)O)c(F)c1F` [Compound I-53]: the Ki is over 1 µM.
In the case of `CCCOc1c(F)c(F)c(B(O)O)c(F)c1F` [Compound I-54], the Ki is over 1 µM.
On to `OB(O)c1c(F)c(F)cc(F)c1F` [Compound I-55], for which the Ki was over 1 µM.
The same measure, in the same setting: as for `OB(O)c1ccc2cc(OCc3ccccc3)ccc2c1` [Compound I-56], the figure is under 0.01 µM.
`CCc1ccc(B(O)O)cc1` [Compound I-57]: the Ki is 0.01 to 1 µM.
As to `CCCc1ccc(B(O)O)cc1` [Compound I-58], the Ki lay in the range of 0.01 to 0.1 µM.
With `CCOc1ccc(B(O)O)cc1` [Compound I-59], the Ki is 0.01 to 1 µM.
On the same count and under the same terms, to `CCCOc1ccc(B(O)O)cc1` [Compound I-60] belongs 0.01 to 0.1 µM; to `CCCCOc1ccc(B(O)O)cc1` [Compound I-61], 0.01 to 0.1 µM; to `OB(O)c1cncc2ccccc12` [Compound I-62], over 1 µM.
In the case of `OB(O)c1cc(C(F)(F)F)cc(C(F)(F)F)c1` [Compound I-63], the Ki was over 1 µM.
Same read-out and setting: to `OB(O)c1ccoc1` [Compound I-64] belongs over 1 µM; to `OB(O)c1cnc2ccccc2c1` [Compound I-65], over 1 µM.
Regarding `O=[N+]([O-])c1ccccc1B(O)O` [Compound I-66], the Ki was over 1 µM.
Still for that read-out and setting: as for `CN(C)c1ccc(B(O)O)cc1` [Compound I-68], the figure is over 1 µM; as for `OB(O)c1ccc(Br)cc1` [Compound I-69], 0.01 to 1 µM; as for `OB(O)c1ccc(I)cc1` [Compound I-70], 0.01 to 0.1 µM.
Take `OB(O)c1cccc(F)c1` [Compound I-71]: the Ki is over 1 µM.
Same read-out and setting: to `OB(O)c1ccc(F)cc1` [Compound I-72] belongs over 1 µM; to `OB(O)c1cccc(Cl)c1` [Compound I-73], 0.01 to 1 µM; to `OB(O)c1ccc(O)cc1` [Compound I-74], over 1 µM.
Turning to `OB(O)c1ccc(Cl)c(Cl)c1` [Compound I-75], the Ki is 0.01 to 0.1 µM.
Still for that read-out and setting: to `COc1cccc(B(O)O)c1` [Compound I-76] belongs over 1 µM.
Same read-out and setting: to `COc1ccc(B(O)O)cc1OC` [Compound I-77] belongs over 1 µM; to `COc1ccccc1B(O)O` [Compound I-78], over 1 µM; to `Cc1cccc(B(O)O)c1` [Compound I-79], over 1 µM.
Regarding `Cc1ccc(B(O)O)cc1C` [Compound I-80], the Ki lay in the range of 0.01 to 1 µM.
As to `Cc1ccccc1B(O)O` [Compound I-81], the inhibition constant Ki was over 1 µM.
The same measure, in the same setting: to `O=[N+]([O-])c1ccc(B(O)O)cc1` [Compound I-83] belongs 0.01 to 1 µM.
Still for that read-out and setting: as for `CS(=O)(=O)c1ccc(B(O)O)cc1` [Compound I-84], the figure is 0.01 to 1 µM.

For the origin of these results see patent US8329675B2, “Inhibitors of fatty acid amide hydrolase” (Infinity Pharmaceuticals, Inc., priority 2006, dated 2012).
